Converted amounts (≈) assume the structure as drawn. Like-named read-outs stand apart in the source and are kept apart here.
Experiments:
Format in all cases: physicochemical
[1] = Dynamic Vapor Sorption (DVS) of free base
Method: Samples (˜10 mg) were transferred into a DVS instrument and recorded the weight change with respect to the atmospheric humidity at 25° C. using the following parameters: • Equilibrium: dm/dt: 0.01%/min. (for min: 10 min and max: 180 min). • Drying: 0% RH for 120 min • RH (%) measurement step: 10% • RH (%) measurement step scope: 0-90-0% (6) Proton Nuclear Magnetic Resonance (1H NMR) • 400 MHz Bruker with DMSO-d6 or MeOH-d4 solvents • Temperature: 27° C.
(1S,2S)-2-fluoro-N-(6-(4-methylpyridin-3-yl)benzo[d]thiazol-2-yl)cyclopropane-1-carboxamide free base appears as light yellow powder. Subsequently, the physical and thermal properties of free base were characterized. […] This free base form was named as Pattern A.

[2] = Solubility test of free base in bio-relevant media and buffers; settings: for solubility at 24 h: thermodynamic from solid
Method: About 5 mg starting free base were weighed in 2 mL vials. Then 1.0 mL biorelevant media (SGF, FaSSIF and FeSSIF) and buffers were added into the vials. All the vials were placed on the thermo-mixer and kept at 37° C. (700 r/m in). After shaking at 37° C. for 24 hrs, mother liquids obtained by filtration were analyzed by HPLC directly or after being diluted by ACN/water for 20-40 times.

[3] = Solubility test of free base in solvents
Method: About 4 mg of (1S,2S)-2-fluoro-N-(6-(4-methylpyridin-3-yl)benzo[d]thiazol-2-yl)cyclopropane-1-carboxamide was weighed into a 2.0 mL glass vial and then selected solvents was added in the vial stepwise until all the solid was dissolved. The experiment was conducted by manual dilution combined with visual observation at 25° C. and 50° C. The total volume of solvent added was recorded.

Question: What does the source list for `Cc1ccncc1-c1ccc2nc(NC(=O)[C@@H]3C[C@@H]3F)sc2c1` [free base, (1S,2S)-2-fluoro-N-(6-(4-methylpyridin-3-yl)benzo[d]thiazol-2-yl)cyclopropane-1-carboxamide]?
Answer: Hygroscopicity (DVS) [1]: Hygroscopic; DVS (ΔW %, 80% RH) ([1]; 25° C., 80% RH): 2.30%; Form change (Yes/No, XRPD) ([1]; XRPD, listed after DVS): (No); Final pH value ([2]; FaSSIF, initial pH 6.52): 6.50; Final pH value ([2]; FeSSIF, initial pH 5.07): 5.09; Final pH value ([2]; SGF, initial pH 1.92): 2.28; solubility at 24 h ([2]; aqueous buffer, pH 2.0 buffer, initial pH 1.98, 37° C., 24 hrs): 2060 µg/mL (≈ 6.29 mM); solubility at 24 h ([2]; aqueous buffer, pH 4.0 buffer, initial pH 4.01, 37° C., 24 hrs): 31 µg/mL (≈ 0.0947 mM); solubility at 24 h ([2]; aqueous buffer, pH 6.0 buffer, initial pH 5.90, 37° C., 24 hrs): 2 µg/mL (≈ 0.00611 mM); Final pH value ([2]; pH 2.0 buffer, initial pH 1.98): 2.25; Final pH value ([2]; pH 4.0 buffer, initial pH 4.01): 4.05; Final pH value ([2]; pH 6.0 buffer, initial pH 5.90): 5.88; Final pH value ([2]; pH 8.0 buffer, initial pH 8.04): 8.08; solubility at 24 h ([2]; simulated gastric fluid, SGF, initial pH 1.92, 37° C., 24 hrs): 2490 µg/mL (≈ 7.61 mM); solubility at 24 h ([2]; simulated gastric fluid, in SGF and pH 2.0 buffer, 37° C., called medium solubility): 2000 to 2500 µg/mL (≈ 6.11 to 7.64 mM); solubility at 24 h ([2]; FeSSIF, initial pH 5.07, 37° C., 24 hrs): 45 µg/mL (≈ 0.137 mM); Final pH value ([2]; water): 8.84; solubility ([3]; aqueous with cosolvent or surfactant or cyclodextrin, thermodynamic from solid, Acetone/H2O (1/1, v/v), 25° C., read-out: Solubility): < 5000 µg/mL; solubility ([3]; aqueous with cosolvent or surfactant or cyclodextrin, thermodynamic from solid, Acetone/H2O (1/1, v/v), 50° C., read-out: Solubility): < 5000 µg/mL; solubility ([3]; aqueous with cosolvent or surfactant or cyclodextrin, thermodynamic from solid, EtOH/H2O (1/1, v/v), 25° C., read-out: Solubility): < 5000 µg/mL; solubility ([3]; aqueous with cosolvent or surfactant or cyclodextrin, thermodynamic from solid, EtOH/H2O (1/1, v/v), 50° C., read-out: Solubility): < 5000 µg/mL; solubility ([3]; in DMF and DMSO): relatively high solubility; solubility ([3]; in mostly common use solvents): relatively low solubility; solubility ([3]; organic solvent or mixture, thermodynamic from solid, 1,4-dioxane, 25° C., read-out: Solubility): < 5000 µg/mL; solubility ([3]; organic solvent or mixture, thermodynamic from solid, 1,4-dioxane, 50° C., read-out: Solubility): 7000 to 10000 µg/mL (≈ 21.4 to 30.5 mM); solubility ([3]; organic solvent or mixture, thermodynamic from solid, 2-Propanol (IPA), 25° C., read-out: Solubility): < 5000 µg/mL; solubility ([3]; organic solvent or mixture, thermodynamic from solid, 2-Propanol (IPA), 50° C., read-out: Solubility): < 5000 µg/mL; solubility ([3]; organic solvent or mixture, thermodynamic from solid, Acetone, 25° C., read-out: Solubility): < 5000 µg/mL; solubility ([3]; organic solvent or mixture, thermodynamic from solid, Acetone, 50° C., read-out: Solubility): < 5000 µg/mL; solubility ([3]; organic solvent or mixture, thermodynamic from solid, Acetonitrile (ACN), 25° C., read-out: Solubility): < 5000 µg/mL; solubility ([3]; organic solvent or mixture, thermodynamic from solid, Acetonitrile (ACN), 50° C., read-out: Solubility): < 5000 µg/mL; solubility ([3]; organic solvent or mixture, thermodynamic from solid, Dichloromethane (DCM), 25° C., read-out: Solubility): < 5000 µg/mL; solubility ([3]; organic solvent or mixture, thermodynamic from solid, Dimethylsulfoxide (DMSO), 25° C., read-out: Solubility): > 100000 µg/mL; solubility ([3]; organic solvent or mixture, thermodynamic from solid, Ethyl acetate (EtOAc), 25° C., read-out: Solubility): < 5000 µg/mL; solubility ([3]; organic solvent or mixture, thermodynamic from solid, Ethyl acetate (EtOAc), 50° C., read-out: Solubility): < 5000 µg/mL; solubility ([3]; organic solvent or mixture, thermodynamic from solid, Ethyl alcohol (EtOH), 25° C., read-out: Solubility): < 5000 µg/mL; solubility ([3]; organic solvent or mixture, thermodynamic from solid, Ethyl alcohol (EtOH), 50° C., read-out: Solubility): < 5000 µg/mL; solubility ([3]; organic solvent or mixture, thermodynamic from solid, Heptane, 25° C., read-out: Solubility): < 5000 µg/mL; solubility ([3]; organic solvent or mixture, thermodynamic from solid, Heptane, 50° C., read-out: Solubility): < 5000 µg/mL; solubility ([3]; organic solvent or mixture, thermodynamic from solid, Isopropyl acetate (IPAc), 25° C., read-out: Solubility): < 5000 µg/mL; solubility ([3]; organic solvent or mixture, thermodynamic from solid, Isopropyl acetate (IPAc), 50° C., read-out: Solubility): < 5000 µg/mL; solubility ([3]; organic solvent or mixture, thermodynamic from solid, Methanol (MeOH), 25° C., read-out: Solubility): < 5000 µg/mL; solubility ([3]; organic solvent or mixture, thermodynamic from solid, Methanol (MeOH), 50° C., read-out: Solubility): 5000 to 7000 µg/mL (≈ 15.3 to 21.4 mM); solubility ([3]; organic solvent or mixture, thermodynamic from solid, Methyl ethyl ketone (MEK), 25° C., read-out: Solubility): < 5000 µg/mL; solubility ([3]; organic solvent or mixture, thermodynamic from solid, Methyl ethyl ketone (MEK), 50° C., read-out: Solubility): < 5000 µg/mL; solubility ([3]; organic solvent or mixture, thermodynamic from solid, Methyl isobutyl ketone (MIBK), 25° C., read-out: Solubility): < 5000 µg/mL; solubility ([3]; organic solvent or mixture, thermodynamic from solid, Methyl isobutyl ketone (MIBK), 50° C., read-out: Solubility): < 5000 µg/mL; solubility ([3]; organic solvent or mixture, thermodynamic from solid, Methyl tert-butyl ether (MtBE), 25° C., read-out: Solubility): < 5000 µg/mL; solubility ([3]; organic solvent or mixture, thermodynamic from solid, Methyl tert-butyl ether (MtBE), 50° C., read-out: Solubility): < 5000 µg/mL; solubility ([3]; organic solvent or mixture, thermodynamic from solid, N,N-Dimethylformamide (DMF), 25° C., read-out: Solubility): 67000 to 100000 µg/mL (≈ 205 to 305 mM); solubility ([3]; organic solvent or mixture, thermodynamic from solid, N,N-Dimethylformamide (DMF), 50° C., read-out: Solubility): > 100000 µg/mL; solubility ([3]; organic solvent or mixture, thermodynamic from solid, Tetrahydrofuran (THF), 25° C., read-out: Solubility): 8000 to 10000 µg/mL (≈ 24.4 to 30.5 mM); solubility ([3]; organic solvent or mixture, thermodynamic from solid, Tetrahydrofuran (THF), 50° C., read-out: Solubility): 9000 to 13000 µg/mL (≈ 27.5 to 39.7 mM); solubility ([3]; organic solvent or mixture, thermodynamic from solid, Toluene, 25° C., read-out: Solubility): < 5000 µg/mL; solubility ([3]; organic solvent or mixture, thermodynamic from solid, Toluene, 50° C., read-out: Solubility): < 5000 µg/mL; solubility ([3]; thermodynamic from solid, Water, 25° C., read-out: Solubility): < 5000 µg/mL; solubility ([3]; thermodynamic from solid, Water, 50° C., read-out: Solubility): < 5000 µg/mL
